# Source: US6723753B2, “Substituted n-benzyl-n-phenyl aminoalcohol compounds useful for inhibiting cholesteryl ester transfer protein activity” (Pharmacia Corporation, priority 2002, dated 2004)
# Target: T1, CETP (Homo sapiens, UniProt P11597)
# T1 sequence (P11597 18-493): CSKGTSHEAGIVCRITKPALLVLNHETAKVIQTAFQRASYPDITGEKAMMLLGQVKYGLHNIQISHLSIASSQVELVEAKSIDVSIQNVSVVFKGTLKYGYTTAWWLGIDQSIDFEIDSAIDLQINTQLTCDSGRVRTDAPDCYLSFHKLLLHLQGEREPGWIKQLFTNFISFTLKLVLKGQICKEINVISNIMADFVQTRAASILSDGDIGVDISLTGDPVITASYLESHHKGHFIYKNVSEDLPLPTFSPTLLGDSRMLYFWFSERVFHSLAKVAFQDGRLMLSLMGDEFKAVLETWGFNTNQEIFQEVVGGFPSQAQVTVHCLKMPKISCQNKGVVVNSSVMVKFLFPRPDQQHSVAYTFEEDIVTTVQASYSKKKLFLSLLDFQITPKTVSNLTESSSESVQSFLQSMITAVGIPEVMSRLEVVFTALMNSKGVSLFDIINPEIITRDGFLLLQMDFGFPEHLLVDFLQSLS
# Test: Assay of CETP Inhibition using Purified Components (Reconstituted Buffer Assay)
# Type: biochemical
# Parameters: made in house; host or cells: CHO cells (serum-free conditioned medium)
# Conditions: IC50, Inhibition of CETP activity in reconstituted buffer assay; transfer of [3H]CE from HDL to LDL
# Procedure: Assay of CETP Inhibition using Purified Components (Reconstituted Buffer Assay)
# The ability of compounds to inhibit CETP activity was assessed using an in vitro assay that measured the rate of transfer of radiolabeled cholesteryl ester ([^3H]CE) from HDL donor particles to LDL acceptor particles. Details of the assay are provided by Glenn, K. C. et al. (Glenn and Melton, “Quantification of Cholesteryl Ester Transfer Protein (CETP): A) CETP Activity and B) Immunochemical Assay of CETP Protein,” Meth. Enzymol., 263, 339-351 (1996)). Human recombinant CETP can be obtained from the serum-free conditioned medium of CHO cells transfected with a cDNA for CETP and purified as described by Wang, S. et al. (J. Biol. Chem. 267, 17487-17490 (1992)). To measure CETP activity, [^3H]CE-labeled-HDL, LDL, CETP and assay buffer (50 mM tris(hydroxymethyl)aminomethane, pH 7.4; 150 mM sodium chloride; 2 mM ethylenediamine-tetraacetic acid (EDTA); 1% bovine serum albumin) were incubated in a final volume of 200 μL, for 2 hours at 37° C. in 96 well plates. […] The inhibitors were then diluted 1:1 with CETP in assay buffer, and then 25 μL of that solution was mixed with 175 μL of lipoprotein pool for assay. Following incubation, LDL was differentially precipitated by the addition of 50 μL of 1% (w/v) dextran sulfate/0.5 M magnesium chloride, mixed by vortex, and incubated at room temperature for 10 minutes. A potion of the solution (200 μL) was transferred to a filter plate (Millipore). After filtration, the radioactivity present in the precipitated LDL was measured by liquid scintillation counting.
# This value was defined as the IC50.
# Examples of IC50 values determined by these methods are specified in Table 9.
row,SMILES,IC50 [µM]
1,"OC(CN(Cc1cccc(-c2ncccc2C(F)(F)F)c1)c1cccc(Oc2ccccc2)c1)C(F)(F)F (stereo not shown) [Example 588, 3-[(3-phenoxyphenyl)[[3-[(3-trifluoromethyl)-2-pyridinyl]phenyl]methyl]amino]-1,1,1-trifluoro-2-propanol]",4.1

# Same assay, conditions: Inhibition of CETP activity in reconstituted buffer assay; transfer of [3H]CE from HDL to LDL; read-out: IC50
row,SMILES,IC50 [µM]
1,CN(C)CCOc1cccc(N(Cc2cccc(OC(F)(F)C(F)F)c2)CC(O)C(F)(F)F)c1 (stereo not shown) [Example 511],> 50
2,Cc1ccc(CN(CC(O)C(F)(F)F)c2cccc(F)c2F)cc1 (stereo not shown) [Example 681],> 100
3,Cc1cccc(CN(CC(O)C(F)(F)F)c2cccc(C(F)(F)F)c2F)c1 (stereo not shown) [Example 680],> 100
4,O=S(=O)(Nc1cccc(N(Cc2cccc(OC(F)(F)C(F)F)c2)CC(O)C(F)(F)F)c1)c1ccc(F)c(Cl)c1 (stereo not shown) [Example 533],> 50
5,O=C(O)c1cccc(N(Cc2cccc(OC(F)(F)F)c2)CC(O)C(F)(F)F)c1 (stereo not shown) [Example 586],> 50
6,COc1cc(OC)c(OC)cc1CN(CC(O)C(F)(F)F)c1cccc(OC(F)(F)F)c1 (stereo not shown) [Example 354],> 100
7,O=C(Nc1cccc(N(Cc2cccc(OC(F)(F)C(F)F)c2)CC(O)C(F)(F)F)c1)c1cccnc1 (stereo not shown) [Example 539],> 50
8,O=[N+]([O-])c1ccc(CN(CC(O)C(F)(F)F)c2cccc(OC(F)(F)F)c2)cc1 (stereo not shown) [Example 331],> 100
9,CS(=O)(=O)c1ccc(Sc2cccc(N(Cc3cccc(OC(F)(F)C(F)F)c3)CC(O)C(F)(F)F)c2)cc1 (stereo not shown) [Example 479],> 50
10,COc1ccc(CN(CC(O)C(F)(F)F)c2cccc(OC(F)(F)F)c2)cc1OCc1ccccc1 (stereo not shown) [Example 99],> 100
11,CC(C)NC(=O)Nc1cccc(N(Cc2cccc(OC(F)(F)C(F)F)c2)CC(O)C(F)(F)F)c1 (stereo not shown) [Example 549],> 50

# Further lines, results first:
row,IC50 [µM],SMILES
1,4.8,"CC(C)S(=O)(=O)c1cccc(N(Cc2cccc(OC(F)(F)C(F)F)c2)CC(O)C(F)(F)F)c1 (stereo not shown) [Example 482, 3-[[3-[(1-methylethyl)sulfonyl]phenyl][[3-(1,1,2,2-tetrafluoroethoxy)-phenyl]methyl]amino]-1,1,1-trifluoro-2-propanol]"
2,3.9,OC(CN(Cc1cccc(OC(F)(F)C(F)F)c1)c1cccc(Oc2cncnc2)c1)C(F)(F)F (stereo not shown) [Example 449]
3,0.79,OC(CN(Cc1cccc(OC(F)(F)C(F)F)c1)c1cccc(Cc2cc(Cl)cc(Cl)c2)c1)C(F)(F)F (stereo not shown) [Example 518]
4,70,COc1cc(OC)cc(C(=O)N(CC(O)C(F)(F)F)c2cccc(OC(F)(F)F)c2)c1 (stereo not shown) [Example 353]
5,15,OC(CN(Cc1cccc(Cl)c1)Cc1cccc(OC(F)(F)F)c1)C(F)(F)F (stereo not shown) [compound 694]
6,75,COc1ccc(N(Cc2cccc(C)c2)CC(O)C(F)(F)F)cc1 (stereo not shown) [Example 28]
7,90,OC(CN(Cc1cccc(OC(F)(F)C(F)F)c1)c1ccc2c(c1)oc1ccccc12)C(F)(F)F (stereo not shown) [Example 207]
8,2.2,CC(C)(C)c1ccc(Oc2cccc(N(Cc3cccc(OC(F)(F)C(F)F)c3)CC(O)C(F)(F)F)c2)cc1 (stereo not shown) [Example 437]
9,4.5,O=[N+]([O-])c1ccc(COc2cccc(N(Cc3cccc(OC(F)(F)C(F)F)c3)CC(O)C(F)(F)F)c2)cc1 (stereo not shown) [Example 375]
10,2.5,OC(CN(Cc1cccc(OC(F)(F)C(F)F)c1)c1cccc(Cc2ccc(F)cc2)c1)C(F)(F)F (stereo not shown) [Example 519]
11,15,Cc1cccc(N(Cc2ccc(C(F)(F)F)cc2)CC(O)C(F)(F)F)c1 (stereo not shown) [Example 39]
12,2.1,OC(CN(Cc1cccc(OC(F)(F)C(F)F)c1)c1cccc(OCc2ccccc2Cl)c1)C(F)(F)F (stereo not shown) [Example 404]
13,42,OC(CN(Cc1cccc(OC(F)(F)C(F)F)c1)c1cccc(S)c1)C(F)(F)F (stereo not shown) [473B]
14,1.1,OC(CN(Cc1cccc(OC(F)(F)C(F)F)c1)c1cccc(OCc2ccc(F)c(F)c2)c1)C(F)(F)F (stereo not shown) [Example 398]
15,35,COc1cccc(CN(CC(O)C(F)(F)F)c2cccc(OC(F)(F)F)c2)c1 (stereo not shown) [Example 348]
16,8,OC(CN(Cc1cccc(OC(F)(F)F)c1)c1ccc2c(c1)OCCCO2)C(F)(F)F (stereo not shown) [Example 139]
